Target: human APJ receptor (Homo sapiens (Human), UniProt P35414)
Assay: biochemical
Type: biochemical
Conditions: read-out: Activity hAPJ SPA EC50 IP
Summary of the method: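 Membranes from CHO cells stably expressing cloned human APJ were incubated with WGA SPA beads in 20 mM HEPES pH 7.5, 5 mM MgCl2, 0.1% BSA, 200 mM NaCl and 3 μM GDP. Reaction started with 0.2 nM [35S]GTPγS ± ligands, 90 min at RT. EC50 obtained by non-linear regression as mean of independent experiments.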

Chain of human APJ receptor (P35414 whole entry): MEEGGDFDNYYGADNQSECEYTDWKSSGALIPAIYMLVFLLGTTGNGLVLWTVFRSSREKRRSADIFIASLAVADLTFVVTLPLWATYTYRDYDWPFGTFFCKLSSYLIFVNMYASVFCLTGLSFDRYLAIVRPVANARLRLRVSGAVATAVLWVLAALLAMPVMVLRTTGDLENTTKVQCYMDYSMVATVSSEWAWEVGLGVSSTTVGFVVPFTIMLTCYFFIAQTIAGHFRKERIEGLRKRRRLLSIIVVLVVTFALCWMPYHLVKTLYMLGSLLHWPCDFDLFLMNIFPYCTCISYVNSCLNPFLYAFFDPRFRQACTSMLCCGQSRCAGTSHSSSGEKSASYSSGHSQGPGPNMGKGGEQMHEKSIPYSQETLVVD

## COc1cccc(-c2nnc(NS(=O)(=O)C[C@H](O)c3ccc(C#N)cn3)n2-c2c(OC)cccc2OC)n1 (single isomer, unassigned) [Example 332.0, (R)-2-(5-cyanopyridin-2-yl)-N-(4-(2,6-dimethoxyphenyl)-5-(6-methoxypyridin-2-yl)-4H-1,2,4-triazol-3-yl)-2-hydroxyethanesulfonamide or (S)-2-(5-cyanopyridin-2-yl)-N-(4-(2,6-dimethoxyphenyl)-5-(6-methoxypyridin-2-yl)-4H-1,2,4-triazol-3-yl)-2-hydroxyethanesulfonamide]
  EC50: 0.56 nM

## COc1cccc(OC)c1-n1c(NS(=O)(=O)[C@@H](C)[C@@H](O)c2ccc(C#N)cc2F)nnc1-c1cncc(C)c1 (single isomer, unassigned) [Example 343.0]
  EC50: 64 nM

## COc1cccc(OC)c1-n1c(NS(=O)(=O)[C@@H](C)[C@@H](O)c2ccc(C#N)cc2F)nnc1-c1cncc(C)c1 (single isomer, unassigned) [Example 344.0]
  EC50: 0.6 nM

## COc1cccc(OC)c1-n1c(NS(=O)(=O)[C@@H](C)[C@H](OC)c2ccc(F)cn2)nnc1-c1cncc(C)c1 (single isomer, unassigned) [Example 351.0]
  EC50: 0.87 nM

## COc1cccc(OC)c1-n1c(NS(=O)(=O)[C@@H](C)[C@H](OC)c2ccc(F)cn2)nnc1-c1cncc(C)c1 (single isomer, unassigned) [Example 352.0]
  EC50: 0.32 nM

## COc1cccc(OC)c1-n1c(NS(=O)(=O)[C@@H](C)[C@H](OC)c2ccc(F)cn2)nnc1-c1cncc(C)c1 (single isomer, unassigned) [Example 353.0]
  EC50: 100 nM

## COc1cccc(OC)c1-n1c(NS(=O)(=O)[C@H](C)[C@H](O)c2ncc(F)cn2)nnc1-c1cncc(C)c1 (single isomer, unassigned) [Example 358.0, (1R,2R)—N-(4-(2,6-dimethoxyphenyl)-5-(5-methylpyridin-3-yl)-4H-1,2,4-triazol-3-yl)-1-(5-fluoropyrimidin-2-yl)-1-hydroxypropane-2-sulfonamide or (1S,2S)—N-(4-(2,6-dimethoxyphenyl)-5-(5-methylpyridin-3-yl)-4H-1,2,4-triazol-3-yl)-1-(5-fluoropyrimidin-2-yl)-1-hydroxypropane-2-sulfonamide]
  EC50: 69 nM

## COc1cccc(OC)c1-n1c(NS(=O)(=O)[C@H](C)[C@@H](OCCO)c2ncc(C)cn2)nnc1-c1cncc(C)c1 (single isomer, unassigned) [Example 394.0, (1S,2R)—N-(4-(2,6-dimethoxyphenyl)-5-(5-methylpyridin-3-yl)-4H-1,2,4-triazol-3-yl)-1-(2-hydroxyethoxy)-1-(5-methylpyrimidin-2-yl)propane-2-sulfonamide or (1R,2S)—N-(4-(2,6-dimethoxyphenyl)-5-(5-methylpyridin-3-yl)-4H-1,2,4-triazol-3-yl)-1-(2-hydroxyethoxy)-1-(5-methylpyrimidin-2-yl)propane-2-sulfonamide]
  EC50: 12 nM

## COc1cccc(OC)c1-n1c(NS(=O)(=O)[C@H](C)[C@@H](OCCO)c2ncc(C)cn2)nnc1-c1cncc(C)c1 (single isomer, unassigned) [Example 395.0, (1S,2R)—N-(4-(2,6-dimethoxyphenyl)-5-(5-methylpyridin-3-yl)-4H-1,2,4-triazol-3-yl)-1-(2-hydroxyethoxy)-1-(5-methylpyrimidin-2-yl)propane-2-sulfonamide or (1R,2S)—N-(4-(2,6-dimethoxyphenyl)-5-(5-methylpyridin-3-yl)-4H-1,2,4-triazol-3-yl)-1-(2-hydroxyethoxy)-1-(5-methylpyrimidin-2-yl)propane-2-sulfonamide]
  EC50: 0.11 nM

## COc1cccc(OC)c1-n1c(NS(=O)(=O)[C@H](C)[C@@H](OC[C@H](C)O)c2ncc(C)cn2)nnc1-c1cncc(C)c1 (single isomer, unassigned) [Example 400.0]
  EC50: 17 nM

## COc1cccc(OC)c1-n1c(NS(=O)(=O)[C@H](C)[C@@H](OC[C@H](C)O)c2ncc(C)cn2)nnc1-c1cncc(C)c1 (single isomer, unassigned) [Example 401.0]
  EC50: 21 nM

## COc1cccc(OC)c1-n1c(NS(=O)(=O)[C@H](C)[C@@H](OC[C@H](C)O)c2ncc(C)cn2)nnc1-c1cncc(C)c1 (single isomer, unassigned) [Example 402.0]
  EC50: 0.86 nM

## COc1cccc(OC)c1-n1c(NS(=O)(=O)[C@H](C)[C@@H](OC[C@H](C)O)c2ncc(C)cn2)nnc1-c1cncc(C)c1 (single isomer, unassigned) [Example 403.0]
  EC50: 0.21 nM

## COc1cccc(OC)c1-n1c(NS(=O)(=O)[C@@H](C)[C@@H](OCCO)c2ncc(C)cn2)nnc1-c1cncc(C)c1 (single isomer, unassigned) [Example 408.0, (1S,2S)—N-(4-(2,6-dimethoxyphenyl)-5-(5-methylpyridin-3-yl)-4H-1,2,4-triazol-3-yl)-1-(2-hydroxyethoxy)-1-(5-methylpyrimidin-2-yl)propane-2-sulfonamide or (1R,2R)—N-(4-(2,6-dimethoxyphenyl)-5-(5-methylpyridin-3-yl)-4H-1,2,4-triazol-3-yl)-1-(2-hydroxyethoxy)-1-(5-methylpyrimidin-2-yl)propane-2-sulfonamide]
  EC50: 0.88 nM

## COc1cccc(OC)c1-n1c(NS(=O)(=O)[C@@H](C)[C@@H](OCCO)c2ncc(C)cn2)nnc1-c1cncc(C)c1 (single isomer, unassigned) [Example 409.0, (1S,2S)—N-(4-(2,6-dimethoxyphenyl)-5-(5-methylpyridin-3-yl)-4H-1,2,4-triazol-3-yl)-1-(2-hydroxyethoxy)-1-(5-methylpyrimidin-2-yl)propane-2-sulfonamide or (1R,2R)—N-(4-(2,6-dimethoxyphenyl)-5-(5-methylpyridin-3-yl)-4H-1,2,4-triazol-3-yl)-1-(2-hydroxyethoxy)-1-(5-methylpyrimidin-2-yl)propane-2-sulfonamide]
  EC50: 29 nM

## COc1cccc(-c2nnc(NS(=O)(=O)[C@H](C)[C@@H](OCCO)c3ncc(C)cn3)n2-c2c(OC)cccc2OC)n1 (single isomer, unassigned) [Example 415.0, (1S,2R)—N-(4-(2,6-dimethoxyphenyl)-5-(6-methoxypyridin-2-yl)-4H-1,2,4-triazol-3-yl)-1-(2-hydroxyethoxy)-1-(5-methylpyrimidin-2-yl)propane-2-sulfonamide or (1R,2S)—N-(4-(2,6-dimethoxyphenyl)-5-(6-methoxypyridin-2-yl)-4H-1,2,4-triazol-3-yl)-1-(2-hydroxyethoxy)-1-(5-methylpyrimidin-2-yl)propane-2-sulfonamide]
  EC50: 8.9 nM

## COc1cccc(-c2nnc(NS(=O)(=O)[C@H](C)[C@@H](OCCO)c3ncc(C)cn3)n2-c2c(OC)cccc2OC)n1 (single isomer, unassigned) [Example 416.0, (1S,2R)—N-(4-(2,6-dimethoxyphenyl)-5-(6-methoxypyridin-2-yl)-4H-1,2,4-triazol-3-yl)-1-(2-hydroxyethoxy)-1-(5-methylpyrimidin-2-yl)propane-2-sulfonamide or (1R,2S)—N-(4-(2,6-dimethoxyphenyl)-5-(6-methoxypyridin-2-yl)-4H-1,2,4-triazol-3-yl)-1-(2-hydroxyethoxy)-1-(5-methylpyrimidin-2-yl)propane-2-sulfonamide]
  EC50: 0.26 nM

Source: patent publication US10058550B2, “Methods of treating heart failure” (priority 2015, dated 2018)
